These results are taken from article PMC12040169 (PLOS Biology, 2025).

This series can be described thus: in vitro. The settings on record: human, hela cells, % viability.

In general, viability refers to a read-out of living cells in per cent, often relative to untreated cells. Turning to `O=C(O)c1cc(NC(=O)c2cccc(N3C(=O)c4ccccc4C3=O)c2)cc(C(=O)O)c1` [CBK263338], the viability at 28.5 h, 10 µM amounted to 96.8%. The same measure, in the same setting: under `Cn1cc(C2CNCCN2C(=O)CCCc2csc3ccccc23)cn1` (centres unmarked) [CBK304274C] stands 89.9%. Still for that read-out and setting: the value for `Cc1nn(C)cc1S(=O)(=O)N1CCCC(c2cccc(Cc3ccccc3Cl)n2)C1` (centres unmarked) [CBK286127] was 106%; that for `Cc1ccc(O)c(Nc2ncnc3ccc(Br)cc23)c1` [CBK269028C] was 98.3%; that for `COc1cncc(-c2cc(Nc3ccc(O)cc3)ncn2)c1` [CBK090752] was 98%. For the molecule `O=C(C[C@@H]1CCNC[C@@H]1Cc1cc(-c2ccccc2)on1)NC1CC1` [CBK289146], the viability at 28.5 h, 10 µM stood at 88%. Still for that read-out and setting: under `CC1CCC(C(N)=O)CN1C(=O)c1cc(Br)c[nH]1` (centres unmarked) [CBK305769] stands 94%; under `COc1ccc(CCCC(=O)Nc2ccccc2N2CCNCC2)cc1OC` [CBK028283T], 107%; under `CN1CCN(c2nccnc2-c2ccco2)CC1` [CBK038050], 86.7%. Still for that read-out and setting: under `Oc1nc(CSc2nnc(-c3ccncc3)n2-c2ccccc2)nc2ccccc12` [CBK264851] stands 97.5%. Still for that read-out and setting: under `COc1ccc(S(=O)(=O)N(C)CC(=O)Nc2ccc(S(N)(=O)=O)cc2)cc1` [CBK265922] stands 102%; under `CC(C)C1OC(NCCN2CCOCC2)=NC1=O` (centres unmarked) [CBK074097T], 91%; under `C=CCC1(CC=C)CCN1C(=O)c1sc2ncn(C)c(=O)c2c1C` [CBK282637], 84.7%. In the case of `Cc1ccc(CN2CCNCC2CCO)o1` (centres unmarked) [CBK269844], the viability at 28.5 h, 10 µM worked out at 92.3%.

For the molecule `COc1ccc2[nH]c3c(c2c1)CCN1C(c2ccco2)N2CCC31CC2` (centres unmarked) [CBK284432], the viability at 28.5 h, 10 µM stood at 88%.

As to `c1ccc2sc(CCSCCc3nc4ccccc4s3)nc2c1` [CBK261036], the viability at 28.5 h, 10 µM is 104%. `COc1cc(/C=N/c2ccc3oc(-c4ccc(C(C)(C)C)cc4)nc3c2)ccc1OC(=O)c1ccc(Cl)cc1Cl` [CBK261238]: the viability at 28.5 h, 10 µM worked out at 104%. In the case of `CS(=O)(=O)c1ccc(CNC(=O)C2(c3ccccc3)CCCC2)cc1` [CBK161524], the viability at 28.5 h, 10 µM is 96.3%. The same measure, in the same setting: under `COc1nccnc1-c1ccc(Cl)c(Cl)c1` [CBK107110] stands 98.7%. On to `CCc1ccc(OCCNc2cc(N3CCN(CCO)CC3)ccc2[N+](=O)[O-])cc1` [CBK046496], for which the viability at 28.5 h, 10 µM stood at 91.7%. Take `CC(NC(=O)Cc1ccccc1F)c1nc2cccnc2n1C(C)C` (centres unmarked) [CBK283829]: the viability at 28.5 h, 10 µM came out at 90.8%. As for `Cc1ccc(OCCC(=O)NCC(c2cccs2)N2CCOCC2)cc1` (centres unmarked) [CBK305976], the viability at 28.5 h, 10 µM is 90.9%. For `CCNC(=O)CN1CCN(C(=O)C(C)(C)c2cccc(C#N)c2)CC1` [CBK306141], the viability at 28.5 h, 10 µM turned out to be 96.4%. For `N#CC(C(=O)NC1CCCCC1)C(=O)c1nn(-c2ccccc2)c2c1CSc1ccccc1-2` (centres unmarked) [CBK017690], the viability at 28.5 h, 10 µM worked out at 103%. Turning to `CC1CCN(Cc2ccc(-c3cn(CC(=O)NCc4ccc(OC(F)(F)F)c(F)c4)nn3)cc2)CC1` [CBK167536], the viability at 28.5 h, 10 µM is 87.3%. Turning to `COc1ccc2c(c1)COC1(CCN(C(=O)C3CCC3C(=O)O)CC1)O2` (centres unmarked) [CBK060857], the viability at 28.5 h, 10 µM (bulk resorufin, single well) was 97.1%. As for `NC1(C(F)(F)F)Oc2cc(Cl)c(Cl)cc2O1` [CBK021805], the viability at 28.5 h, 10 µM came to 88.5%. Same read-out and setting: under `COc1cc(Nc2nc(-c3ccco3)cn3ccnc23)cc(OC)c1OC` [CBK037413] stands 95.2%. For `CC(C)[C@H](CO)Nc1nc(-c2ccc(N3CCOCC3)cc2)cn2ccnc12` [CBK066151], the viability at 28.5 h, 10 µM was 108%. Turning to `CN(C)CCN(Cc1ccncc1)Cc1ccsc1` [CBK283206], the viability at 28.5 h, 10 µM amounted to 102%. The same measure, in the same setting: under `COc1ccc(-c2cc(C(F)(F)F)nc(SCC(=O)NN3CCN(C)CC3)n2)cc1` [CBK266115] stands 96.5%; under `CCc1c(C)nc2ccccc2c1SCCC(=O)O` [CBK116382C], 118%.
